Reference: PubChem BioAssay (NCI)
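1) Cells in 96-well plates. 2) Compound, 48 h, 5 concentrations. 3) Linear interpolation between surrounding doses. 4) Unreached endpoint = highest concentration. TGI is the concentration that stops growth completely.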

How the values were obtained:
Test in all cases: DTP human tumour cell line panel, 48 h
NCI-H460 lung = system: NCI-H460 lung
UACC-257 melanoma = system: UACC-257 melanoma
OVCAR-5 ovarian = system: OVCAR-5 ovarian
DU-145 prostate = system: DU-145 prostate
HCT-116 colon = system: HCT-116 colon
OVCAR-3 ovarian = system: OVCAR-3 ovarian
MDA-MB-435 = system: MDA-MB-435
SNB-75 CNS = system: SNB-75 CNS
OVCAR-4 ovarian = system: OVCAR-4 ovarian
HOP-62 NSCLC = system: HOP-62 NSCLC
HT29 colon = system: HT29 colon

Structure (SMILES)	TGI (NCI-H460 lung) [µM]	TGI (UACC-257 melanoma) [µM]	TGI (OVCAR-5 ovarian) [µM]	TGI (DU-145 prostate) [µM]	TGI (HCT-116 colon) [µM]	TGI (OVCAR-3 ovarian) [µM]	TGI (MDA-MB-435) [µM]	TGI (SNB-75 CNS) [µM]	TGI (OVCAR-4 ovarian) [µM]	TGI (HOP-62 NSCLC) [µM]	TGI (HT29 colon) [µM]
Cc1ccc(S(=O)(=O)N2CCN(CCO)CCN(S(=O)(=O)c3ccc(C)cc3)CCN(CCO)CC2)cc1	28.7	25.1	> 100	34.8	29.1	44.5	29.2	92.4	37.6	81.5	26
O=C(NCc1ccccc1)c1c(O)c2ccccc2[nH]c1=O	> 100	> 100	> 100	> 100	> 100	> 100	> 100	> 100	> 100	> 100	> 100
CC(C)c1nccn1Cc1ccc(Cl)cc1Cl	> 100	95.9	> 100	> 100	63.4	> 100	> 100	85	> 100	> 100	> 100
COC(=O)C(C(=O)OC)C1CC(=O)c2c(Br)sc(Br)c21 (stereo not drawn)	40.4	76.8	28.9	34.8	30.9	17.5	40.9	75	26.3	46.3	32.9
O=C(NC/C=C/Br)NC1CCNc2ccccc21 (stereo not drawn)	> 100	54.9	> 100	> 100	> 100	> 100	88.9	> 100	> 100	> 100	31.2
O=C(Nc1nc(C23CC4CC(CC(C4)C2)C3)cs1)c1cc2cc([N+](=O)[O-])ccc2oc1=O	> 100	> 100	> 100	> 100	> 100	> 100	> 100	74.9	44.8	> 100	> 100
COc1ccc(C2NC(=O)Nc3c2c(=O)oc2c3ccc3ccccc32)cc1 (stereo not drawn)	> 100	> 100	> 100	> 100	> 100	> 100	> 100	75.8	> 100	> 100	> 100
O=c1oc2ccccc2c(O)c1Cc1cccc(Cc2c(O)c3ccccc3oc2=O)c1	> 100	> 100	> 100	> 100	> 100	> 100	> 100	> 100	> 100	> 100	> 100
COc1ccc(NC(=S)NNC(=O)c2cc(-c3ccccc3)nc3ccccc23)cc1	35.9	46.9	58.8	45.4	27	33.1	13.4	70.3	65.1	33.3	39.3
CSc1ccccc1P(CCP(c1ccccc1SC)c1ccccc1SC)c1ccccc1SC	> 80.1	> 89.5	> 100	> 100	> 100	> 33.5	> 100	> 55.6	> 100	> 100	> 100
CC1(O)C(=O)OC2CC([C@]3(O)CCC4[C@@H]5C[C@H]6O[C@]67[C@@H](O)C=CC(=O)[C@]7(C)C5CC[C@@]43C)C1(C)C2 (stereo partly drawn)	> 80.5	26.6	74.1	75.2	23.1	35	33.2	> 94.1	26.5	> 100	36.5
CC1(C)O[C@@H](CP(c2cccc3ccccc23)c2cccc3ccccc23)[C@H](CP(c2cccc3ccccc23)c2cccc3ccccc23)O1	> 100	> 100	> 100	> 100	> 100	> 100	> 100	> 100	> 100	> 100	> 100
Cc1cccc2c1C(=O)[C@@](C)([C@]1(C)Nc3cccc(C)c3C1=O)N2	> 100	> 100	> 100	> 100	> 100	> 100	> 100	> 100	> 100	> 100	> 100
C/C(=C\CNc1nc(Cl)nc2nc[nH]c12)CO	> 100	> 100	> 100	> 100	> 100	> 100	> 100	> 100	> 100	> 100	> 100
CCCCCCCCC[n+]1cccc(C2C(C(=O)OCC)=C(C)NC(C)=C2C(=O)OCC)c1	19.3	7.73	24.6	25.9	30.5	11.8	4.48	11.6	21.1	28.7	11.7
Cn1c(=O)c2[nH]c(CCC(=O)O)nc2n(C)c1=O	> 100	> 100	> 100	> 100	> 100	> 100	> 100	> 100	> 100	> 100	> 100
c1ccc2c(c1)c1c3n2-c2cc(on2)C3CCC1 (stereo not drawn)	> 100	> 100	> 100	> 100	> 100	> 100	> 100	> 100	> 100	> 100	> 100
Nc1ccc(-c2nc3ccccc3s2)cc1	43.1	49.7	36.5	31.6	35.2	33.3	32.1	58.1	35.6	60.3	40.1
Cc1ccc([N+](=O)[O-])cc1NC(=O)C(=O)C1CCC2=C(Sc3ccccc3N2)C1=O (stereo not drawn)	> 100	> 100	> 100	> 100	> 100	90.8	> 100	> 100	> 100	> 100	> 100
COc1cc2c(cc1O)CC[C@@H]1C2CC[C@@]2(C)C1CC[C@@H]2O (stereo partly drawn)	> 72.7	> 100	> 100	> 100	> 81	7.17	0.927	22.1	> 100	45.8	64.6
COC(=O)C1[C@H](C(=O)OC)C1(Br)CBr (stereo partly drawn)	> 100	> 100	> 100	> 100	> 100	> 100	> 100	> 100	> 100	> 100	> 100
COC1=CC(=O)c2c(cc(COP(=O)(N(C)CCBr)N(C)CCBr)n2C)C1=O	9.44	12.9	4.35	19.5	4.85	10.7	2.35	0.971	20.4	5.23	1.42
C=CCn1c(=O)c2ccccc2[n+]2c(-c3cccc([N+](=O)[O-])c3)csc12	> 100	> 100	> 100	> 100	> 100	> 100	> 100	69.9	> 100	> 100	> 100
COC(=O)C[C@H](CCSC)NC(=O)C[C@H](CCSC)NC(=O)C[C@H](CCSC)NC(=O)OC(C)(C)C	> 100	> 100	> 100	> 100	> 100	48	> 100	29	55.9	> 100	> 100
C[C@@H]1OCC(O)C([C@H]2OC(c3ccccc3)=N[C@H]2CO)O1 (stereo partly drawn)	> 100	> 100	> 100	> 100	> 100	> 100	> 100	> 100	> 100	> 100	> 100
O=C(NCCCCNCCCNC(=O)OCc1ccccc1)OCc1ccccc1	69	41.3	> 100	> 100	70	> 100	> 100	89.4	> 100	> 100	37.7
C=C1C(=O)O[C@H]2[C@H]([C@H](C)CCCC(C)=O)O[C@H]([C@@]3(C)CCC(=O)O3)C[C@@H]12	> 100	> 100	> 100	> 100	85.5	> 100	> 100	> 100	> 100	> 100	> 100
C/C(=C\c1ccccc1)C(=O)NCc1ccc(C(=O)NCCc2c[nH]c3ccccc23)cc1	> 100	78.2	> 100	> 100	> 100	> 100	> 100	> 100	> 100	> 100	> 100
CCOC(=O)N1C(=S)C(C(=O)OC)(C(=O)OC)N=C1C	> 100	> 100	> 100	> 100	> 100	> 100	> 100	> 100	> 100	> 100	
